Results from patent US8552013B2, “Heterocyclic compounds based on N6-substituted adenine, methods of their preparation, their use for preparation of drugs, cosmetic preparations and growth regulators, pharmaceutical preparations, cosmetic preparations and growth regulators containing these compounds” (USTAV Experimentalni Botaniky Akademie Ved Ceske Republiky, priority 2001, dated 2013).

Columns and labels:
Human lymphocytes = test: Immunosuppressive activity, 3H-thymidine incorporation in concanavalin A activated lymphocytes; assay type: cell-based; details: Lymphocyte, 72 hours, [3H]-TdR, read-out: Human lymphocytes ED50
Excerpt: One of the most important parameters of specific cellular immunity is proliferative response of lymphocytes to antigens or polyclonal mitogens. The majority of normal mammalian peripheral lymphocytes comprise resting cells. Antigens or nonspecific polyclonal mitogens have the capacity to activate lymphoid cells and this is accompanied by dramatic changes of intracellular metabolism (mitochondrial activity, protein synthesis, nucleic acids synthesis, formation of blastic cells and cellular proliferation). […] Variety of in vitro assays was developed to measure proliferative response of lymphocytes. The most commonly used is ^3H-thymidine incorporation method.
During cell proliferation, DNA has to be replicated before the cell is divided into two daughter cells. This close association between cell doublings and DNA synthesis is very attractive for assessing cell proliferation. If labelled DNA precursors are added to the cell culture, cells that are about to divide incorporate the labelled nucleotide into their DNA. Traditionally, those assays usually involve the use of radiolabelled nucleosides, particularly tritiated thymidine ([^3H]-TdR). The amount of [^3H]-TdR incorporated into the cellular DNA is quantified by liquid scintillation counting.
Human heparinized peripheral blood was obtained from healthy volunteers by cubital vein punction. The blood was diluted in PBS (1:3) and mononuclear cells were separated by centrifugation in Ficoll-Hypaque density gradient (Pharmacia, 1.077 g/ml) at 2200 rpm for 30 minutes. Following centrifugation, lymphocytes were washed in PBS and resuspended in cell culture medium (RMPI 1640, 2 mM glutamine, 100 U/ml penicillin, 100 μg/ml streptomycin, 10% fetal calf serum and sodium bicarbonate).
The cells were diluted at target density of 1,100,000 cells/ml were added by pipette (180 μl) into 96/well microtiter plates. Four-fold dilutions of the intended test concentration were added at time zero in 20 μl aliquots to the microtiter plate wells. Usually, test compound was evaluated at six 4-fold dilutions. In routine testing, the highest well concentration was 266.7 μM. All drug concentrations were examined in duplicates. All wells with exception of unstimulated controls were activated with 50 μl of concanavalin A (25 μg/ml). Incubations of cells with test compounds lasted for 72 hours at 37° C., in 5% CO2 atmosphere and 100% humidity. At the end of incubation period, the cells were assayed by using the [^3H]-TdR:
Cell cultures were incubated with 0.5 μCi (20 μl of stock solution 500 μCi/ml) per well for 6 hours at 37° C. and 5% CO2. The automated cell harvester was used to lyse cells in water and adsorb the DNA onto glass-fiber filters in the format of microtiter plate. The DNA incorporated [^3H]-TdR was retained on the filter while unincorporated material passes through. The filters were dried at room temperature overnight, sealed into a sample bag with 10-12 ml of scintillant. The amount of [^3H]-TdR present in each filter (in cpm) was determined by scintillation counting in a Betaplate liquid scintillation counter. The effective dose of immunosuppressant (ED) was calculated using the following equation: ED=(CCPMdrug exposed well/mean CCPMcontrol wells)×100%. The ED50 value, the drug concentration inhibiting proliferation of 50% of lymphocytes, was calculated from the obtained dose response curves.

[1] = test system: human diploid fibroblasts (HCA cells); test: Senescence, beta-galactosidase staining of human diploid fibroblasts; assay type: cell-based; details: for SENESCENT CELLS (%) HCA25: passage 25; for SENESCENT CELLS (%) HCA45: passage 45; for SENESCENT CELLS (%) HCA80: passage 80
Experimental: In this example, human diploid fibroblasts (HCA cells of various passage levels: passage 25—designated HCA25; passage 45—designated HCA45; passage 80—designated HCA80) were stained for β-galactosidase activity. The medium used for cell cultivation was removed, the cells were washed twice in […], and fixed in 2-3 ml of fixing solution comprised of a 2% formaldehyde and 0.2% glutaraldehyde in PBS. The cells were incubated at room temperature for 5 minutes, then washed twice with PBS. The cells were subsequently incubated at 37° C. (without CO2) for 1 to 16 hours in 2-3 ml of a solution comprising potassium ferricyanide (5 mM), potassium ferrocyanide (5 mM), MgCl2 (2 mM), X-gal (5-bromo-4-chloro-3-indolyl-β-D-galactopyranoside) (1 mg/ml), in citric/phosphate buffer, pH 6.0). […] In this experiment, senescent cells, but not other cells were stained blue due to the action of β-galactosidase on the substrate (FIG. 4).

K-562 = test: Calcein AM cytotoxicity, K-562; assay type: cell-based; details: Homo sapiens, K562, 72 h, read-out: IC 50, K-562
Excerpt: (§1) One of the parameters used, as the basis for cytotoxicity assays, is the metabolic activity of viable cells. For example, a microtiter assay, which uses the Calcein AM, is now widely used to quantitate cell proliferation and cytotoxicity. For instance, this assay is used in drug screening programs and in chemosensitivity testing. Because only metabolically active cells cleave Calcein AM, these assays detect viable cells exclusively. The quantity of reduced Calcein AM corresponds to the number of vital cells in the culture.
(§2) The cells were maintained in Nunc/Corning 80 cm^2 plastic tissue culture flasks and cultured in cell culture medium (DMEM with 5 g/l glucose, 2 mM glutamine, 100 U/ml penicillin, 100 μg/ml streptomycin, 10% fetal calf serum and sodium bicarbonate).
(§3) The cell suspensions that were prepared and diluted according to the particular cell type and the expected target cell density (2.500-30.000 cells per well based on cell growth characteristics) were added by pipette (80 μl) into 96/well microtiter plates. Inoculates were allowed a pre-incubation period of 24 hours at 37° C. and 5% CO2 for stabilisation. Four-fold dilutions of the intended test concentration were added at time zero in 20 μl aliquots to the microtiter plate wells. Usually, test compound was evaluated at six 4-fold dilutions. […] All drug concentrations were examined in duplicates. Incubations of cells with the test compounds lasted for 72 hours at 37° C., in 5% CO2 atmosphere and 100% humidity. At the end of incubation period, the cells were assayed by using the Calcein AM. Ten microliters of the stock solution were pipetted into each well and incubated further for 1 hours. Fluorescence (FD) was measured with the Labsystem FIA Reader Fluoroscan Ascent (UK).

[2] = test system: breast carcinoma cell line MCF-7; test: Calcein AM cytotoxicity, MCF7; assay type: cell-based, human; details: Homo sapiens, MCF7, 72 h, read-out: IC 50, MCF7
Excerpt: as §1, §2, §3

B16-F0 melanoma = test: Calcein AM cytotoxicity, B16-F0; assay type: cell-based; details: Mus musculus, B16F0, 72 h, read-out: IC 50, B16-F0
Excerpt: as §1
(§4) Human T-lymphoblastic leukemia cell line CEM; promyelocytic HL-60 and monocytic U937 leukemias; breast carcinoma cell lines MCF-7, BT549, MDA-MB-231; glioblastoma U87MG cells; cervical carcinoma cells HELA; sarcoma cells U2OS and Saos2; hepatocellular carcinoma HepG2; mouse fibroblasts NIH3T3; mouse immortalized bone marrow macrophages B2.4 and B10A.4; P388D1 and L1210 leukemia; B16 and B16F10 melanomas were used for routine screening of compounds. The cells were maintained in Nunc/Corning 80 cm^2 plastic tissue culture flasks and cultured in cell culture medium (DMEM with 5 g/l glucose, 2 mM glutamine, 100 U/ml penicillin, 100 μg/ml streptomycin, 10% fetal calf serum and sodium bicarbonate).
(§5) The cell suspensions that were prepared and diluted according to the particular cell type and the expected target cell density (2.500-30.000 cells per well based on cell growth characteristics) were added by pipette (80 μl) into 96/well microtiter plates. Inoculates were allowed a pre-incubation period of 24 hours at 37° C. and 5% CO2 for stabilisation. Four-fold dilutions of the intended test concentration were added at time zero in 20 μl aliquots to the microtiter plate wells. Usually, test compound was evaluated at six 4-fold dilutions. In routine testing, the highest well concentration was […], but it can be the matter of change dependent on the agent. All drug concentrations were examined in duplicates. Incubations of cells with the test compounds lasted for 72 hours at 37° C., in 5% CO2 atmosphere and 100% humidity. At the end of incubation period, the cells were assayed by using the Calcein AM. Ten microliters of the stock solution were pipetted into each well and incubated further for 1 hours. Fluorescence (FD) was measured with the Labsystem FIA Reader Fluoroscan Ascent (UK). The tumour cell survival (GI50) was calculated using the following equitation: TCS═(FDdrug exposed well/mean FDcontrol wells)×100%. The GI50 value, the drug concentration lethal to 50% of the tumour cells, was calculated from the obtained dose response curves (FIG. 1).

[3] = test system: T-lymphoblastic leukemia cell line CEM; test: Calcein AM cytotoxicity, CEM; assay type: cell-based, human
Excerpt: as §1, §2, §3

[4] = test system: promyelocytic HL-60 leukemia; test: Calcein AM cytotoxicity, HL60; assay type: cell-based, human; details: Homo sapiens, HL-60, 72 h, read-out: IC 50, HL60
Excerpt: as §1, §2, §3

[5] = test system: Triticum aestivum cv. Hereward leaf tips; test: Retention of chlorophyll in excised wheat leaf tips; assay type: in vivo; details: chlorophyll retention at the concentration with highest activity
Method in brief: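 Tips of first leaves from 7-day wheat (cv. Hereward) seedlings kept on compound solutions (10^−8 to 10^−4 M, from DMSO stock) for 96 h in the dark at 25 °C. Chlorophyll extracted in 80% ethanol at 80 °C and read at 665 nm. Activity at the best concentration expressed relative to 10^−4 M BAP (100%), five replicates.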

[6] = test system: tobacco callus Nicotiana tabacum L. cv. Wisconsin 38; test: Cytokinin-dependent tobacco callus growth; assay type: cell-based; details: fresh callus weight at the concentration with highest activity
[7] = test system: Amaranthus caudatus cotyledon/hypocotyl explants; test: Amaranthus bioassay, betacyanin content; assay type: in vivo; details: betacyanin content at the concentration with highest activity
HOS = test: Calcein AM cytotoxicity, HOS; assay type: cell-based; details: Homo sapiens, HOS, 72 h
Excerpt: as §1, §4, §5

| Structure (SMILES) | EC50 (Human lymphocytes) [µM] | SENESCENT CELLS (%) HCA25 [1] [%] | SENESCENT CELLS (%) HCA45 [1] [%] | SENESCENT CELLS (%) HCA80 [1] [%] | IC50 (B16-F0 melanoma) [µM] | Activity (%) [10^−4 mol · l^−1 BAP = 100%] [5] | Activity (%) [10^−4 mol · l^−1 BAP = 100%] [6] | activity (%) [10^−5 mol · l^−1 BAP = 100%] [7] | also measured |
| --- | --- | --- | --- | --- | --- | --- | --- | --- | --- |
| COc1ccc(CNc2ncnc3nc[nH]c23)c(O)c1 [2-hydroxy-4-methoxybenzylamino, 6-(2-hydroxy-4-methoxybenzylamino)purine] | 1.8 |  |  |  |  |  |  |  |  |
| Nc1cc(Nc2ncnc3nc[nH]c23)ccc1Cl [3-amino-4-chloroanilino, 6-(3-amino-4-chloroanilino)purine] | 8.3 | 4 | 6 | 22 |  |  |  |  |  |
| Nc1ccc(Nc2ncnc3nc[nH]c23)cc1Cl [3-chloro-4-aminoanilino, 6-(3-chloro-4-aminoanilino)purine] | 12 | 5 | 5 | 24 |  |  |  |  |  |
| Nc1cc(Cl)cc(Nc2ncnc3nc[nH]c23)c1 [3-chloro-5-aminoanilino, 6-(3-chloro-5-aminoanilino)purine] | 12.4 | 3 | 6 | 24 |  |  |  |  |  |
| Clc1cccc(Nc2ncnc3nc[nH]c23)c1 [3-chloroanilino, 6-(3-chloroanilino)purine] | 7.2 | 4 | 5 | 25 |  |  |  |  |  |
| Brc1ccc(Nc2ncnc3nc[nH]c23)cc1 [4-bromoanilino, 6-(4-bromoanilino)purine] | 4.7 | 5 | 3 | 25 |  |  |  |  |  |
| Clc1ccc(Nc2ncnc3nc[nH]c23)cc1 [4-chloroanilino, 6-(4-chloroanilino)purine] | 6.2 | 5 | 5 | 26 |  |  |  |  |  |
| Fc1ccc(CNc2ncnc3nc[nH]c23)cc1Cl [6-(3-chloro-4-fluorobenzylamino)purine] |  |  |  |  | > 167 | 141 (±20) % | 90 (±1) % | 91 (±7) % | IC50 (K-562): > 167 µM; IC50 [2]: > 167 µM; IC50 ([3]; 72 hours, listed as 3Cl4F BAP): 95.8 µM; IC50 ([3]; Homo sapiens, 72 h): 135 µM; IC50 [4]: > 167 µM |
| Cc1cccc(CNc2ncnc3nc[nH]c23)c1 [6-(3-methylbenzylamino)purine] |  |  |  |  | 164 | 111 (±16) % | 79 (±5) % | 84 (±14) % | IC50 (K-562): > 167 µM; IC50 [2]: 102 µM; IC50 ([3]; Homo sapiens, 72 h): > 167 µM; IC50 [4]: > 167 µM |
| COc1ccc(CNc2ncnc3nc[nH]c23)cc1 [6-(4-methoxybenzylamino)purine] |  |  |  |  | 84.7 | 79 (±6) % | 39 (±17) % | 23 (±2) % | IC50 (HOS): > 167 µM |
